Experimental data reported in publication PMC8269107, “Lipidation of Temporin-1CEb Derivatives as a Tool for Activity Improvement, Pros and Cons of the Approach” (International Journal of Molecular Sciences, 2021).
Converted amounts (≈) assume the structure as drawn. Where no end group is shown, it is not given here.

How the values were obtained:
Gelation in water = format: physicochemical; conditions: for gel formation in water: within the range of analyzed concentrations
primary fibroblasts = test: Cytotoxicity, MTT assay; format: cell-based, human; conditions: 24 h
Protocol: (§1) Human dermal fibroblasts were obtained as previously reported from biopsies of healthy human skin of three donors undergoing a surgery. All procedures were approved by the Ethics Committee of Medicinal University of Gdansk (NKEBN/483/2011 and NKBBN/745/2019-2020). Immortalized human HaCaT keratinocytes (DKFZ Heidelberg, Germany) were obtained commercially.
(§2) Both types of cell lines were grown in Dulbecco′s Modified Eagle′s Medium (DMEM) (Sigma-Aldrich, Germany), containing […] of glucose, […] of L- glutamine, sodium pyruvate and sodium bicarbonate. Additionally, the medium was supplemented with 10% FCS (fetal calf serum, Sigma-Aldrich, Germany), 100 U/mL of penicillin and 100 μg/mL of streptomycin (Sigma-Aldrich, Germany). The cells were grown in standard culture dishes (BD, USA) in a humidified atmosphere with 5% CO2 at […], and the medium was changed every 2 days.
(§3) The fibroblasts and keratinocytes were seeded at density of 5500 cells per well into 96-well plates suspended in a medium supplemented with 10% FCS. After 24 h from seeding, the media were exchanged with serum- and antibiotic-free DMEM and tested peptides, dissolved in sterile water, which were added, yielding a final concentration ranging from 1 to 50 μg/mL. The cells were then incubated for the next 24 h. At the end of the experiment, the cells were treated with 20 μL of MTT (5 mg/mL in PBS). After 3 h of incubation in the presence of MTT dye, the DMEM medium was discarded and replaced with 6 mM HCl in isopropanol. When the purple crystals of formazan were fully solubilized, absorbance at 570 nm was read.

keratinocytes (HaCaT) = test: Cytotoxicity, MTT assay; format: cell-based, human; conditions: 24 h
Protocol: as §1, §2, §3

S. epidermidis PCM 2118 = test: MIC, broth microdilution; format: cell-based, Staphylococcus epidermidis; conditions: S. epidermidis PCM 2118, 24 h
Description: (§4) Escherichia coli (PCM 2057 = ATCC 25922), Staphylococcus aureus (PCM 2054 = ATCC 25923), Staphylococcus epidermidis (PCM 2118 = ATCC 14990), Bacillus subtilis (PCM 2224 = ATCC 9799), Bacillus cereus (PCM 482 = ATCC 10702) and Pseudomonas aeruginosa (PCM 499 = ATCC 10145) were obtained from the Polish Collection of Microorganisms. Fungi strains Candida albicans (CCM 8186 = CNTC 49/64), Candida glabrata (CCM 8270 = ATCC 90030), Candida parapsilosis (CCM 8260 = ATCC 22019) and Candida krusei (CCM 8271 = ATCC 6258) were acquired from the Czech Collection of Microorganisms. S. aureus USA300 (wild type strain), the reference strain of Klebsiella pneumoniae (ATCC 13883) and clinical isolates of Pseudomonas aeruginosa (PA1, PA2) collected from nonrelated patients admitted to the Stefan Zeromski Specialist Municipal Hospital in Krakow (Poland) were kindly provided by the research group of the Department of Microbiology, Faculty of Biochemistry, Biophysics and Biotechnology, Jagiellonian University, Krakow, Poland.
(§5) Luria-Bertani broth (LB) and Sabouraud Dextrose broth (SB) (Biocorp, Poland) were used for cultivation of bacteria and fungi strains, respectively. The antimicrobial activity of the peptides were analyzed through determination of MIC (minimal inhibitory concentration) parameters according to Clinical and Laboratory Standards (CLSI) guidelines developed for aerobic bacteria and yeasts, respectively. Mueller-Hinton broth (MHB) was used as the working medium for all bacterial strains, while in the case of fungi, RPMI-1640 (with L-glutamine, without sodium bicarbonate) growth medium buffered with MOPS (morpholinepropanesulfonic acid) and supplemented with 2% glucose was used. Inoculum was prepared from freshly grown cultures of microorganisms at their exponential phase of growth. […] Plates were then incubated for 24 h at 37 °C in the case of bacteria and at 35 °C in the case of fungi. After that time, absorbance was read at 590 nm with a Perkin Elmer plate reader. Cultures without peptide were treated as positive control, while uninoculated media were defined as negative control. All measurements were run at least in triplicate.

C.glabrata CCM 8270 = test: MIC, broth microdilution; format: cell-based, Candida glabrata; conditions: C.glabrata CCM 8270, 24 h
Description: as §4, §5

B. cereus PCM 482 = test: MIC, broth microdilution; format: cell-based, Bacillus cereus; conditions: B. cereus PCM 482, 24 h
Description: as §4, §5

B. subtilis PCM 2224 = test: MIC, broth microdilution; format: cell-based, Bacillus subtilis; conditions: B. subtilis PCM 2224, 24 h
Description: as §4, §5

P. aeruginosa PCM 499 = test: MIC, broth microdilution; format: cell-based, Pseudomonas aeruginosa; conditions: P. aeruginosa PCM 499, 24 h
Description: as §4, §5

C.albicans CCM 8186 = test: MIC, broth microdilution; format: cell-based, Candida albicans; conditions: C.albicans CCM 8186, 24 h
Description: as §4, §5

E. coli PCM 2057 = test: MIC, broth microdilution; format: cell-based, Escherichia coli; conditions: E. coli PCM 2057, 24 h
Description: as §4, §5

S. aureus PCM 2054 = test: MIC, broth microdilution; format: cell-based, Staphylococcus aureus; conditions: S. aureus PCM 2054, standard Mueller-Hinton broth, 24 h
Description: as §4, §5

C.krusei CCM 8271 = test: MIC, broth microdilution; format: cell-based, Candida krusei; conditions: C.krusei CCM 8271, 24 h
Description: as §4, §5

C.parapsilosis CCM 8260 = test: MIC, broth microdilution; format: cell-based, Candida parapsilosis; conditions: C.parapsilosis CCM 8260, 24 h
Description: as §4, §5

K.pneumoniae ATCC 13883 = format: cell-based, Klebsiella pneumoniae; conditions: ATCC 13883, 24 h
Description: as §4, §5

P. aeruginosa PA2 = format: cell-based, Pseudomonas aeruginosa; conditions: PA2, 24 h
Description: as §4, §5

P. aeruginosa PA1 = format: cell-based, Pseudomonas aeruginosa; conditions: PA1, 24 h
Description: as §4, §5

Compound	gelation in water (Gelation in water; concentrations of up to 5 mg/mL)	IC50 (primary fibroblasts)	IC50 (keratinocytes (HaCaT))	MIC100 (S. epidermidis PCM 2118)	MIC100 (C.glabrata CCM 8270)	MIC100 (B. cereus PCM 482)	MIC100 (B. subtilis PCM 2224)	MIC100 (P. aeruginosa PCM 499)	MIC100 (C.albicans CCM 8186)	MIC100 (E. coli PCM 2057)	MIC100 (S. aureus PCM 2054)	MIC100 (C.krusei CCM 8271)	MIC100 (C.parapsilosis CCM 8260)	gelation of water solution (Gelation in water; concentration of 1 mg/mL)	gel formation in water (Gelation in water)	MIC100 (K.pneumoniae ATCC 13883)	MIC100 (P. aeruginosa PA2)	MIC100 (P. aeruginosa PA1)
CCCCC(=O)NCCC(=O)N[C@@H](Cc1c[nH]cn1)C(=O)O [Compound C5-CAR, CH3(CH2)3C(O)-βAH]	gelation in water was not observed	>50 µg/mL	>50 µg/mL	Non-inhibitory	Non-inhibitory	Non-inhibitory	Non-inhibitory	Non-inhibitory	Non-inhibitory	Non-inhibitory	Non-inhibitory	Non-inhibitory	Non-inhibitory					
CCCCCCCCCCCC(=O)NCCC(=O)N[C@@H](Cc1c[nH]cn1)C(=O)O [Compound C12-CAR, CH3(CH2)10C(O)-βAH]		>50 µg/mL	>50 µg/mL	Non-inhibitory	Non-inhibitory	Non-inhibitory	Non-inhibitory	Non-inhibitory	Non-inhibitory	Non-inhibitory	Non-inhibitory	Non-inhibitory	Non-inhibitory	underwent gelation	formed self-standing gels in water			
CCCCCCCCCCCCCCCC(=O)NCCC(=O)N[C@@H](Cc1c[nH]cn1)C(=O)O [Compound C16-CAR, CH3(CH2)14C(O)-βAH]		12.5 µg/mL (≈ 26.9 µM)	25 µg/mL (≈ 53.8 µM)	Non-inhibitory	Non-inhibitory	Non-inhibitory	Non-inhibitory	Non-inhibitory	Non-inhibitory	Non-inhibitory	Non-inhibitory	Non-inhibitory	Non-inhibitory		formed self-standing gels in water			
IKKILSKIKKLL-NH2 (C-terminus assumed) [DK5, reference compound]		>50 µg/mL	>50 µg/mL													>200 µg/mL	100 µg/mL	100 µg/mL
